Source: ChEMBL document CHEMBL1201862, “PubChem BioAssay data set” (2004)
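Values below derive from 48-hour exposures of cells grown in 96-well plates, with endpoints linearly interpolated between the two concentrations bracketing the appropriate inhibition level. GI50 marks 50% less growth.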 The source made the active and inactive calls. Rule as the data show it: active = GI50 up to about 1.1 µM and inactive = higher.

Tests used:
Assay in all cases: DTP human tumour cell line panel, 48 h
[1] = test system: A498
[2] = test system: CAKI-1
[3] = test system: CCRF-CEM
[4] = test system: HCC 2998
[5] = test system: HCT-116
[6] = test system: HOP-62
[7] = test system: HOP-92
[8] = test system: Hs-578T
[9] = test system: KM12
[10] = test system: NCI-H226
[11] = test system: NCI-H522
[12] = test system: NCI/ADR-RES
[13] = test system: OVCAR-4
[14] = test system: OVCAR-8
[15] = test system: SF-295
[16] = test system: SK-MEL-2
[17] = test system: SNB-19
[18] = test system: UACC-257
[19] = test system: UACC-62
[20] = test system: UO-31

| Structure (SMILES) | GI50 [1] | GI50 [2] | GI50 [3] | GI50 [4] | GI50 [5] | GI50 [6] | GI50 [7] | GI50 [8] | GI50 [9] | GI50 [10] | GI50 [11] | GI50 [12] | GI50 [13] | GI50 [14] | GI50 [15] | GI50 [16] | GI50 [17] | GI50 [18] | GI50 [19] | GI50 [20] |
| --- | --- | --- | --- | --- | --- | --- | --- | --- | --- | --- | --- | --- | --- | --- | --- | --- | --- | --- | --- | --- |
| Cn1c(=O)c2c(nc(NCCCCl)n2CC(=O)NCCCCl)n(C)c1=O | > 100 µM (inactive) | > 100 µM (inactive) | > 100 µM (inactive) | > 100 µM (inactive) | > 100 µM (inactive) | > 100 µM (inactive) | > 100 µM (inactive) | > 100 µM (inactive) | > 100 µM (inactive) | > 100 µM (inactive) | > 100 µM (inactive) | > 100 µM (inactive) | > 100 µM (inactive) | > 100 µM (inactive) | > 100 µM (inactive) | > 100 µM (inactive) | > 100 µM (inactive) | > 100 µM (inactive) | > 100 µM (inactive) | > 100 µM (inactive) |
| CCOP(=O)(OCC)/C(C#N)=C/c1coc2cc(C)cc(C)c2c1=O | > 100 µM (inactive) | > 100 µM (inactive) | > 100 µM (inactive) | > 100 µM (inactive) | > 100 µM (inactive) | > 100 µM (inactive) | > 100 µM (inactive) | > 100 µM (inactive) | > 100 µM (inactive) | > 100 µM (inactive) | > 100 µM (inactive) | > 100 µM (inactive) | > 100 µM (inactive) | > 100 µM (inactive) | > 100 µM (inactive) | > 100 µM (inactive) | > 100 µM (inactive) | > 100 µM (inactive) | 67 µM (inactive) | > 100 µM (inactive) |
| C=CCOn1c(C=C)nc2c(C)cccc21 | 5.66 µM (inactive) | 2.06 µM (inactive) | 1.33 µM (inactive) | 6.08 µM (inactive) | 2.01 µM (inactive) | 3.77 µM (inactive) | 8.32 µM (inactive) | 4.98 µM (inactive) | 3.41 µM (inactive) | 5.47 µM (inactive) | 2.29 µM (inactive) | 3.12 µM (inactive) | 8.89 µM (inactive) | 2.85 µM (inactive) | 5.58 µM (inactive) | 2.21 µM (inactive) | 5.2 µM (inactive) | 2.99 µM (inactive) | 2.56 µM (inactive) | 2.43 µM (inactive) |
| O=C(Nc1nccs1)NS(=O)(=O)n1cnc2ccccc21 | > 100 µM (inactive) | > 100 µM (inactive) | > 100 µM (inactive) | > 100 µM (inactive) | > 100 µM (inactive) | > 100 µM (inactive) | > 100 µM (inactive) | > 100 µM (inactive) | > 100 µM (inactive) | > 100 µM (inactive) | > 100 µM (inactive) | > 100 µM (inactive) | > 100 µM (inactive) | > 100 µM (inactive) | > 100 µM (inactive) | > 100 µM (inactive) | > 100 µM (inactive) | > 100 µM (inactive) | > 100 µM (inactive) | > 100 µM (inactive) |
| [O-][n+]1ccc(NO)c2ccccc21 | 0.673 µM (active) | 1.16 µM (inactive) | 0.492 µM (active) | 0.253 µM (active) | 2.03 µM (inactive) | 1.79 µM (inactive) | 2.07 µM (inactive) | 2.09 µM (inactive) | 0.984 µM (active) | 1.87 µM (inactive) | 1.51 µM (inactive) | 1.54 µM (inactive) | 1.9 µM (inactive) | 0.561 µM (active) | 0.374 µM (active) | 1.77 µM (inactive) | 2.34 µM (inactive) | 7.36 µM (inactive) | 1.22 µM (inactive) | 1.75 µM (inactive) |
| CC1OC(OC2C(OC(=O)[C@]34CCC(C)(C)C[C@H]3C3=CC[C@@H]5[C@@]6(C)CC[C@H](OC7OC(C(=O)O)C(O)C(O)C7O)C(C)(C)[C@@H]6CC[C@@]5(C)[C@]3(C)C[C@H]4O)OCC(O)C2O)C(O)C(O)C1OC1OCC(OC2OCC(O)C(O)C2O)C(O)C1O (stereo not given in full) | 1.48 µM (inactive) | 9.73 µM (inactive) | > 10 µM (inactive) | 1.53 µM (inactive) | 4.66 µM (inactive) | 13.2 µM (inactive) | 6.01 µM (inactive) | 19.1 µM (inactive) | 3.61 µM (inactive) | 6.92 µM (inactive) | 4.94 µM (inactive) | 11.1 µM (inactive) | 5.32 µM (inactive) | 15.9 µM (inactive) | 10.2 µM (inactive) | 2.96 µM (inactive) | 5.51 µM (inactive) | 8.63 µM (inactive) | 11 µM (inactive) | 2.13 µM (inactive) |
| O=C(O)CC1NC(/C(=C/c2ccccc2)NC(=O)c2ccccc2)OC1=O (stereo not given) | > 100 µM (inactive) | > 100 µM (inactive) | 22.6 µM (inactive) | 37.9 µM (inactive) | 18.5 µM (inactive) | 18.9 µM (inactive) | > 100 µM (inactive) | 44.8 µM (inactive) | 17.4 µM (inactive) | 21.8 µM (inactive) | 16.5 µM (inactive) | 21.7 µM (inactive) | 51.1 µM (inactive) | 25.9 µM (inactive) | 38.1 µM (inactive) | 27.6 µM (inactive) | 25.9 µM (inactive) | > 100 µM (inactive) | 22.5 µM (inactive) | 23.8 µM (inactive) |
| O/N=C(\CC(O)(C(F)(F)F)C(F)(F)F)c1cccs1 | > 10 µM (inactive) | > 10 µM (inactive) | > 10 µM (inactive) | > 10 µM (inactive) | > 10 µM (inactive) | > 10 µM (inactive) | > 10 µM (inactive) | > 10 µM (inactive) | > 10 µM (inactive) | > 10 µM (inactive) | > 10 µM (inactive) | > 10 µM (inactive) | > 10 µM (inactive) | > 10 µM (inactive) | > 10 µM (inactive) | > 10 µM (inactive) | > 10 µM (inactive) | > 10 µM (inactive) | > 10 µM (inactive) | > 10 µM (inactive) |
| COC(=O)c1cc2c(n1S(=O)(=O)c1ccc(C)cc1)C(=O)C(=O)c1[nH]cc(C(=O)OCc3ccccc3)c1-2 | 1.65 µM (inactive) | 0.355 µM (active) | 0.0873 µM (active) | 0.218 µM (active) | 0.0718 µM (active) | 0.149 µM (active) | 0.236 µM (active) | 0.43 µM (active) | 0.231 µM (active) | 0.199 µM (active) | 0.094 µM (active) | 0.583 µM (active) | 0.209 µM (active) | 0.0989 µM (active) | 0.12 µM (active) | 0.112 µM (active) | 0.191 µM (active) | 0.0322 µM (active) | 0.0555 µM (active) | 0.211 µM (active) |
| Cn1c(-c2cccs2)cc(-c2ccccc2)c1-c1cccs1 | > 100 µM (inactive) | 93.5 µM (inactive) | > 100 µM (inactive) | > 100 µM (inactive) | 31.2 µM (inactive) | 18.2 µM (inactive) | > 100 µM (inactive) | > 100 µM (inactive) | 74 µM (inactive) | 45.4 µM (inactive) | 50.8 µM (inactive) | > 100 µM (inactive) | 74.3 µM (inactive) | 65.2 µM (inactive) | 17 µM (inactive) | 25.5 µM (inactive) | 12.2 µM (inactive) | 48.2 µM (inactive) | 97.5 µM (inactive) | > 100 µM (inactive) |
